Laboratory results published in patent US20060269942A1, “In situ click chemistry method for screening high affinity molecular imaging probes” (priority 2005, published 2006).
pKd: −log10 of the molar value. Read-outs that look alike come from different tables or passages of the source.

Legend:
carbonic anhydrase II = biological target: T1, carbonic anhydrase II (Bos taurus, UniProt P00921); experiment: DNSA fluorescence competition binding assay for carbonic anhydrase II; conditions: in situ hit of FIG. 4 screen; enzyme species not stated at the place (bovine CA-II used for the screen and binding constants)
T1 construct: Carbonic anhydrase II from bovine erythrocytes; purchased Sigma-Aldrich C2522; host or cells: bovine erythrocytes (natural source)
T1 sequence (P00921 whole entry): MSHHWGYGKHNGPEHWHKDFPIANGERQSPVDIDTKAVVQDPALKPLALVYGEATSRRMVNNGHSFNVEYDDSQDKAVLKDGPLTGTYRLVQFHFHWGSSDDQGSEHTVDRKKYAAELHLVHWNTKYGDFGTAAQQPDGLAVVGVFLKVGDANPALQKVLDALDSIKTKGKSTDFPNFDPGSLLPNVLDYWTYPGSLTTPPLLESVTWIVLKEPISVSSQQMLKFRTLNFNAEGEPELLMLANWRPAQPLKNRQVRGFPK
Description: (§1) General. Carbonic anhydrase II from bovine erythrocytes (Sigma-Aldrich, catalog number C2522; lot number 083K9295, 4,014 Wilbur-Anderson units/mg, 90% protein content by Biuret) was used for in situ click chemistry experiments and for the determination of binding constants. We tested the protein by SDS gel electrophoresis and found it to display a single band corresponding to 29-30,000 molecular weight units. Carbonic anhydrase II from human erythrocytes (Sigma Aldrich, catalog number C-6165, 4,260 wilbur-anderson units/mg) was used for the determination of binding affinities for the human enzyme. All fluorescence measurements were performed on a SPECTRA MAX GEMINI fluorescence plate reader at 37° C. […]
(§2) General. The fluorescence competition assay developed by Whitesides et al. (J. Am. Chem. Soc. 1994, 116, 5057) and J. C. […] The assay is based on the observation that the only fluorescence signal detected at 460 nm upon excitation at 290 nm, an absorption minimum for DNSA, is that of the DNSA·CA complex. With increasing sample concentration the fluorescence intensity due to DNSA·CA decreases as a result of competition with the test compound, allowing the determination of dissociation constants from Scatchard plots. […] The Kd values were determined from Scatchard plots using the equation below as described by Whitesides et.al. [CA·Inh]/[CA]tot·[Inh]=K11inh−K11inh{[CA·Inh]+[CA·DNSA]}/([CA]tot) […]

[1] = biological target: T2, human carbonic anhydrase II (Homo sapiens, UniProt P00918); experiment: Titration of human carbonic anhydrase II with DNSA (fluorescence); assay type: binding; conditions: enzyme 200 nM in pH 7.4 phosphate buffer, titrated with DNSA; read-out: dissociation constant (Kd) of CA·DNSA
T2 construct: Carbonic anhydrase II from human erythrocytes; purchased Sigma Aldrich C-6165; host or cells: human erythrocytes (natural source)
Description: as §1, §2

[2] = biological target: T3, bovine carbonic anhydrase II (Bos taurus, UniProt P00921); experiment: Titration of bovine carbonic anhydrase II with DNSA (fluorescence); assay type: binding
T3 construct: Carbonic anhydrase II from bovine erythrocytes; purchased Sigma-Aldrich C2522; host or cells: bovine erythrocytes (natural source)
T3 sequence (P00921 whole entry): as above
Description: as §1, §2

| pKd [1] | pKd ([2]; determined by titration experiments, value used in the mass balance, enzyme species not stated, read-out: dissociation constant Kd for DNSA) | pKd ([2]; enzyme 200 nM in pH 7.4 phosphate buffer, titrated with DNSA, read-out: dissociation constant (Kd) of CA·DNSA) | Compound | pKd (carbonic anhydrase II) |
| --- | --- | --- | --- | --- |
|  |  |  | CC(C)[C@@H](C(=O)NCc1cc(F)ccn1)n1cc(-c2ccc(S(N)(=O)=O)cc2)nn1 [the product] | 9.30 |
| 6.37 | 6.41 | 6.41 | CN(C)c1cccc2c(S(N)(=O)=O)cccc12 [DNSA] |  |
